Data on 79 compounds can be found in paper PMC6792352, “Limited Chemical Structural Diversity Found to Modulate Thyroid Hormone Receptor in the Tox21 Chemical Library” (Environmental Health Perspectives, 2019).

Where a name gives a salt, the structure may show the parent alone.

The nature of the data set: in vitro. The note with it: rat, gh3-tre-luc cells.

With `C=CC(C)(O)CC/C=C(\C)CCC=C(C)C` (stereo not shown) [Nerolidol], under “AC50 (uM) modified / 1000”, the CC50 at 24 h is greater than 90 µM. As for `CCCCCCOc1ccc(O)cc1` [4-(Hexyloxy)phenol], half-maximal cytotoxicity (AC50 (uM) modified / 1000) (CC50 at 24 h) was put at 25.3 µM. The same measure, in the same setting: under `CCC(=O)OCCOc1ccccc1` [Phenoxyethyl propionate] stands greater than 90 µM; under `Clc1ccc(C(Cl)(Cl)Cl)cn1` [2-Chloro-5-trichloromethylpyridine], greater than 90 µM. Same read-out and setting: as for `O=P(O)(O)OC[C@H](O)CO` [sn-Glycerol 3-phosphate bis(cyclohexylammonium)], the figure is greater than 50 µM. `CC(Cc1ccc2c(c1)OCO2)NO` (stereo not shown) [1-(1,3-Benzodioxol-5-yl)-N-hydroxypropan-2-amine hydrochloride] displayed a 50% cytotoxic concentration (CC50) at 24 h (AC50 (uM) modified / 1000, Tox21_110001=Tox21_112852, viability, 1 nM T3 present, 24 h) greater than 100 µM. As to `CSc1nc2cc(Cl)c(Oc3cccc(Cl)c3Cl)cc2[nH]1` [Triclabendazole], the midpoint of cytotoxicity (AC50 (uM) modified / 1000), the CC50 at 24 h, lay at 28.5 µM. Same read-out and setting: under `CC(C)=CCC/C(C)=C/CC/C(C)=C/CC/C=C(\C)CC/C=C(\C)CCC=C(C)C` [(E)-Squalene] stands greater than 50 µM; under `Nc1cccc(N)c1` [1,3-Benzenediamine dihydrochloride], greater than 90 µM.

Regarding `CCCCCCCC[N+](C)(CCCCCCCC)CCCCCCCC` [Methyltrioctylammonium trifluoromethanesulfonate], for the setting “AC50 (uM) modified / 1000”, the 50% cytotoxic concentration (CC50) at 24 h was 4.19 µM.

`COC(=O)C1=C(C)NC(C)=C(C(=O)OC(C)C)C1c1cccc2nonc12` (stereo not shown) [Isradipine] registered a CC50 at 24 h (AC50 (uM) modified / 1000) greater than 20 µM.

As for `O=C1CCCC=CCCCCCCCCCC1` [5-Cyclohexadecen-1-one], the CC50 at 24 h (AC50 (uM) modified / 1000) came out at 74.1 µM.

Under “AC50 (uM) modified / 1000”, `CCCCC(CC)COC(=O)C(C#N)=C(c1ccccc1)c1ccccc1` (stereo not shown) [2-Ethylhexyl-2-cyano-3,3-diphenylacrylate] returned a CC50 at 24 h greater than 90 µM. Where the note is “AC50 (uM) modified / 1000”, `c1ccc(CCCc2ccccn2)cc1` [2-(3-Phenylpropyl)pyridine] came in with a CC50 at 24 h greater than 90 µM. On the same count and under the same terms, as for `Cc1c(-c2ccccc2)oc2c(C(=O)OCCN3CCCCC3)cccc2c1=O` [Flavoxate hydrochloride], the figure is greater than 20 µM; as for `COC(=O)C(C)Oc1ccc(Oc2ncc(C(F)(F)F)cc2Cl)cc1` (stereo not shown) [Haloxyfop-methyl], greater than 90 µM; as for `NCC(O)c1ccc(O)cc1` (stereo not shown) [Octopamine hydrochloride], greater than 90 µM. `C=COCCOCCOCCOC=C` [3,6,9,12-Tetraoxatetradeca-1,13-diene] displayed a CC50 at 24 h (AC50 (uM) modified / 1000) greater than 90 µM.

As for `NC(=O)Oc1ccc(Cc2ccccc2)cc1` [Diphenan], the CC50 at 24 h (AC50 (uM) modified / 1000) was greater than 50 µM. Still for that read-out and setting: under `CCOC(=O)NCCC[Si](OCC)(OCC)OCC` [Ethyl [3-(triethoxysilyl)propyl]carbamate] stands greater than 90 µM. Compound `CC1(CN2CCC(n3c(=O)[nH]c4ccccc43)CC2)OCc2ccccc2-n2cccc21` (stereo not shown) [Zaldaride] gave a cytotoxic concentration (CC50) at 24 h (AC50 (uM) modified / 1000) of 32.7 µM.

With `Cc1ccc(O)c([C@H](CCN(C(C)C)C(C)C)c2ccccc2)c1` [Tolterodine], the CC50 at 24 h (AC50 (uM) modified / 1000) came out at 18.9 µM. The compound `CCCCCCCC/C=C\CCCCCCCC(=O)NCc1ccc(O)c(OC)c1` [Olvanil] displayed a CC50 at 24 h (AC50 (uM) modified / 1000) of 8.65 µM. Still for that read-out and setting: under `CC(C)Cn1cnc2c1c(=O)n(C)c(=O)n2C` [Isbufylline] stands greater than 50 µM; under `N#CCc1ccccc1[N+](=O)[O-]` [(2-Nitrophenyl)acetonitrile], greater than 90 µM. Where the note is “AC50 (uM) modified / 1000”, `COc1cccc(OC)c1C(=O)O` [2,6-Dimethoxybenzoic acid] came in with a CC50 at 24 h greater than 90 µM. The same measure, in the same setting: under `CC(=O)Oc1cccc(O)c1` [Resorcinol monoacetate] stands greater than 50 µM; under `C[C@]12CC[C@@H]3c4ccc(O)cc4CC[C@H]3[C@@H]1C[C@@H](O)[C@@H]2O` [Estriol], greater than 90 µM.

Consider `CC(C)(C)C(=O)NCCCC(=O)O` [Pivagabine], for which the CC50 at 24 h (AC50 (uM) modified / 1000) is greater than 50 µM. Same read-out and setting: under `O=C1N(c2ccccc2)c2ccccc2C1(Cc1ccncc1)Cc1ccncc1` [Linopirdine] stands greater than 50 µM; under `COc1ccc2c(c1)C(=O)N(CCc1ccc(S(=O)(=O)NC(=O)NC3CCCCC3)cc1)C(=O)C2(C)C` [Gliquidone], greater than 20 µM; under `CNN` [Methylhydrazine sulfate], greater than 90 µM. The same measure, in the same setting: as for `CN[C@@H]1[C@@H](O[C@H]2O[C@H](CO)[C@@H](N)[C@H](O)[C@H]2O)O[C@H]2C[C@@H](N)[C@@H](O[C@H]3[C@H](O)[C@@H](O)[C@H](N)C[C@@H]3N)O[C@@H]2[C@@H]1O` [Apramycin], the figure is greater than 20 µM. Regarding `c1ccc2c(c1)CCNC2` [1,2,3,4-Tetrahydroisoquinoline], the CC50 at 24 h (AC50 (uM) modified / 1000) is greater than 90 µM.

Consider `NS(=O)(=O)c1cc2c(cc1C(F)(F)F)NC(Cc1ccccc1)NS2(=O)=O` (stereo not shown) [Bendroflumethiazide], for which, where the note is “AC50 (uM) modified / 1000”, the CC50 at 24 h is greater than 20 µM. The same measure, in the same setting: under `CC(Oc1cc(Cl)c(Cl)cc1Cl)C(=O)O` (stereo not shown) [2-(2,4,5-Trichlorophenoxy)propionic acid] stands greater than 90 µM; under `CCc1cc(Cc2cc(CC)cc(C(C)(C)C)c2O)c(O)c(C(C)(C)C)c1` [2,2'-Methylenebis(ethyl-6-tert-butylphenol)], 7.35 µM. The same measure, in the same setting: as for `c1ccc2c(c1)CCCC2` [Tetralin], the figure is greater than 90 µM; as for `CN(C)CCc1c[nH]c2ccc(Cn3cncn3)cc12` [Rizatriptan], greater than 50 µM.

As for `Nc1ccc(-c2ccc(N)cc2)cc1` [Benzidine dihydrochloride], the 50% cytotoxic concentration (CC50) at 24 h (AC50 (uM) modified / 1000, Tox21_110001=Tox21_202584, viability, 1 nM T3 present, 24 h) was greater than 50 µM. As for `Cc1cc(C(=O)NCCc2ccc(S(=O)(=O)NC(=O)NN3CCCCCC3)cc2)no1` [Glisoxepide], the cytotoxic concentration (CC50) at 24 h (AC50 (uM) modified / 1000) was greater than 50 µM. For `NNCCc1ccccc1` [Phenylethylhydrazine sulfate], half-maximal cytotoxicity (AC50 (uM) modified / 1000) (CC50 at 24 h) was put at 32.3 µM.

As for `CC(Cc1ccc(O)cc1)NCC(O)c1cc(O)cc(O)c1` (stereo not shown) [Fenoterol hydrobromide], where the note is “AC50 (uM) modified / 1000”, the half-maximal cytotoxic concentration (CC50) at 24 h is greater than 50 µM. Compound `CCCCCCOc1ccccc1C(N)=O` [Exalamide] showed a cytotoxic concentration (CC50) at 24 h (AC50 (uM) modified / 1000) greater than 50 µM. With `CN1CCN2c3ncccc3Cc3ccccc3C2C1` (stereo not shown) [Mirtazapine], the cytotoxic concentration (CC50) at 24 h (AC50 (uM) modified / 1000) is greater than 50 µM.

As to `CN[C@H]1CC[C@@H](c2ccc(Cl)c(Cl)c2)c2ccc(S(N)(=O)=O)cc21` [UK-373911], the CC50 at 24 h (AC50 (uM) modified / 1000) was 4.55 µM. `CCCCCCCCCCCCCCCC(=O)OCC` [Ethyl hexadecanoate] gave a CC50 at 24 h (AC50 (uM) modified / 1000) greater than 90 µM. Same read-out and setting: as for `CC(CCO)CC(C)(C)C` (stereo not shown) [3,5,5-Trimethyl-1-hexanol], the figure is greater than 90 µM. Same read-out and setting: under `CCOc1ccc2[nH]cc(C(=O)NCc3ccccc3)c(=O)c2n1` [CP-457920] stands greater than 90 µM. Compound `BrCCc1ccccc1` [Phenethyl bromide] displayed a CC50 at 24 h (AC50 (uM) modified / 1000, Tox21_110001=Tox21_200102, viability, 1 nM T3 present, 24 h) greater than 90 µM.

For `CC(C)C1CCC(O)CC1` (stereo not shown) [4-Isopropylcyclohexanol], under “AC50 (uM) modified / 1000”, the CC50 at 24 h was greater than 90 µM. In the case of `OCc1ccccc1` [Benzyl alcohol], the CC50 at 24 h (AC50 (uM) modified / 1000) was greater than 90 µM. As to `Cc1c(C(C)C)c(=O)n(-c2ccccc2)n1C` [Propyphenazone], the CC50 at 24 h (AC50 (uM) modified / 1000) was greater than 50 µM. On the same count and under the same terms, as for `CCN1CCCC1CNC(=O)c1cc(S(N)(=O)=O)ccc1OC` (stereo not shown) [Sulpiride], the figure is greater than 90 µM; as for `CC/C=C\C/C=C\C/C=C\CCCCCCCC(=O)O` [Linolenic acid], greater than 90 µM. Still for that read-out and setting: under `N[C@H](CO)C(=O)O` [D-Serine] stands greater than 50 µM; under `CCNc1ccccc1` [N-Ethylaniline], greater than 90 µM; under `CNc1cnn(-c2cccc(C(F)(F)F)c2)c(=O)c1Cl` [Norflurazon], greater than 90 µM. Turning to `CC[C@H]1CC[C@H](NCc2cc3c(cc2OC)[C@H]2C[C@H]2C(=O)N3C)[C@H](c2ccccc2)N1` [CP-728663], the CC50 at 24 h (AC50 (uM) modified / 1000) is 35.3 µM. In the case of `Clc1ccc(C(Cn2ccnc2)OCc2csc3c(Cl)cccc23)c(Cl)c1` (stereo not shown) [Sertaconazole nitrate], for the setting “AC50 (uM) modified / 1000”, the CC50 at 24 h worked out at 18.4 µM. The compound `ClC(Br)Br` [Chlorodibromomethane] returned a CC50 at 24 h (AC50 (uM) modified / 1000, Tox21_110001=Tox21_200153, viability, 1 nM T3 present, 24 h) greater than 90 µM. For `CN(C)c1ccc(N=NS(=O)(=O)O)cc1` [Fenaminosulf], the half-maximal cytotoxic concentration (CC50) at 24 h (AC50 (uM) modified / 1000) was greater than 90 µM. In the case of `CCCCCCCCOCCCN` [3-(Octyloxy)propan-1-amine], the CC50 at 24 h (AC50 (uM) modified / 1000) was 11.8 µM. Compound `C/C(=N\O)c1ccc(OCC(=O)N2CCCCC2)cc1` [Pifoxime] returned a half-maximal cytotoxic concentration (CC50) at 24 h (AC50 (uM) modified / 1000) greater than 50 µM. The same measure, in the same setting: as for `CCCCCCC(=O)c1ccccc1` [Heptanophenone], the figure is greater than 90 µM. As to `O=C(NCO)NCO` [Dimethylolurea], where the note is “AC50 (uM) modified / 1000”, the CC50 at 24 h was greater than 100 µM.

Where the note is “AC50 (uM) modified / 1000”, `CCC(C)n1c(=O)[nH]c(C)c(Br)c1=O` (stereo not shown) [Bromacil] displayed a CC50 at 24 h greater than 90 µM. On to `CN1[C@@H](CC(=O)c2ccccc2)CCC[C@H]1C[C@H](O)c1ccccc1` [Lobeline], for which the CC50 at 24 h (AC50 (uM) modified / 1000) was greater than 50 µM. `CSc1ccc(Cl)cc1` [4-Chlorophenyl methyl sulfide] returned a CC50 at 24 h (AC50 (uM) modified / 1000) greater than 90 µM.

As for `O=C1OC(=O)C2C3C=CC(C3)C12` (stereo not shown) [2-Norbornene-5,6-dicarboxylic anhydride], the CC50 at 24 h (AC50 (uM) modified / 1000) is greater than 90 µM. Still for that read-out and setting: under `COC(=O)CCCCCCCC(=O)OC` [Dimethyl nonanedioate] stands greater than 90 µM. On the same count and under the same terms, under `CNC(=O)N(C)c1nc2ccccc2s1` [Methabenzthiazuron] stands greater than 90 µM; under `CCCOc1ccc(S(=O)(=O)N2CCN(CC)CC2)cc1-c1nc2c(CC)n(Cc3ccccn3)nc2c(=O)[nH]1` [UK-343664], greater than 90 µM. Still for that read-out and setting: under `Cc1ccc(N(CCO)CCO)cc1` [2,2'-[(4-Methylphenyl)imino]diethanol] stands greater than 90 µM; under `CCCO[Si](OCCC)(OCCC)OCCC` [Tetrapropyl orthosilicate], greater than 90 µM. Take `Nc1ccc(C=Cc2ccc(N)cc2S(=O)(=O)O)c(S(=O)(=O)O)c1` [4,4'-Diamino-2,2'-stilbenedisulfonic acid]: the CC50 at 24 h (AC50 (uM) modified / 1000) was greater than 50 µM. The same measure, in the same setting: as for `O=C(O)c1cc(=O)[nH]c(=O)[nH]1` [Orotic acid], the figure is greater than 90 µM.

As to `COc1cc(NS(=O)(=O)c2ccc(N)cc2)nc(OC)n1` [Sulfadimethoxine], the CC50 at 24 h (AC50 (uM) modified / 1000) is greater than 20 µM. The compound `CC1(C)[C@H]2CC[C@](C)(C2)[C@H]1O` [(1R)-endo-(+)-Fenchyl alcohol] yielded a CC50 at 24 h (AC50 (uM) modified / 1000) greater than 90 µM.
